The record followed here is US8088920B2, “3-trifluoromethyl-pyrazine-2-carboxylic acid amide derivatives as HDL-cholesterol raising agents” (Hoffmann-La Roche Inc., priority 2008, dated 2012).

For orientation: pEC50 means the negative decadic logarithm of the EC50, by convention in mol/L.

pEC50: −log10 of the molar value.

The subject of the assay is THP-1 cells. In words: Cholesterol efflux assay. Type of assay: cell-based. To be noted: Homo sapiens; THP-1 cells differentiated to macrophages, [3H]cholesterol loaded, efflux induced by 10 μg/ml Apolipoprotein AI, 6 hrs; percent stimulation over DMSO. As for the experimental part: The ability of compounds of the invention to stimulate cholesterol efflux is determined in replicate cultures of THP-1 cells in 96-well microplates. Cells are plated at an initial density of 150,000 cells/well and differentiated to macrophages with the addition of PMA (100 ng/ml) for 72 hrs in 10% fetal bovine serum, 3 μl/L of b-mercaptoethanol, RPMI-1640 medium. Cells are washed once with RPMI-1640 and loaded with RPMI-1640 medium containing 2% FCS, 50 μg/ml acetylated LDL, and 10 μCi/ml [^3H]cholesterol for 48 hours at 37° C. After loading the cells are washed once with RPMI-1640 and incubated with the compound of interest from DMSO solutions for an additional 24 hrs in RPMI-1640 medium containing 1 mg/ml fatty acid free-bovine serum albumin (BSA). Upon incubation cells are washed once, and cholesterol efflux is induced by the addition of 10 μg/ml Apolipoprotein AI in RPMI-1640 containing 1 mg/ml BSA and in the presence of the compound for an additional 6 hrs. Following incubation radioactivity is determined in the supernatants and cholesterol efflux is expressed as the percent stimulation over replicate cultures treated only with DMSO. Sigmoidal curves were fitted using the XLfit3 program (ID Business Solutions Ltd. UK) and EC50 values were determined.
As to `O=C(N[C@@H]1CCCC[C@H]1O)c1nc(-c2ccc(Cl)cc2)c(OCC2CC2)nc1C(F)(F)F` [Example 1, 6-(4-chloro-phenyl)-5-cyclopropylmethoxy-3-trifluoromethyl-pyrazine-2-carboxylic acid ((1R,2R)-2-hydroxy-cyclohexyl)-amide], the negative-log EC50 (pEC50) is 6.21.
As to `CC(O)(CNC(=O)c1nc(-c2ccc(Cl)cc2)c(OCC(F)(F)F)nc1C(F)(F)F)C1CC1` (stereo not drawn) [Example 2, 6-(4-chloro-phenyl)-5-(2,2,2-trifluoro-ethoxy)-3-trifluoromethyl-pyrazine-2-carboxylic acid (2-cyclopropyl-2-hydroxy-propyl)-amide], the pEC50 is 6.24.
Regarding `CC(O)(CNC(=O)c1nc(-c2ccc(Cl)cc2)c(OCC2CC2)nc1C(F)(F)F)C1CC1` (stereo not drawn) [Example 3, 6-(4-chloro-phenyl)-5-cyclopropylmethoxy-3-trifluoromethyl-pyrazine-2-carboxylic acid (2-cyclopropyl-2-hydroxy-propyl)-amide], the pEC50 is 6.14.
